Converted amounts (≈) assume the structure as drawn. “Also recorded” adds a separate entry of the source.
Tests used:
Acinetobacter sp. 488 = test: MIC, micro broth dilution in Muller Hinton broth (CLSI), Table 1B; assay type: cell-based; details: read-out: Minimum Inhibitory Concentration
Procedure: (§1) Besifloxacin HCL was tested against ampicillin and cefotaxime (3rd generation cephalosporin) susceptible and resistant gram-negative bacterial strains involved in GNF (gram negative folliculitis) by broth dilution method as per the Clinical & Laboratory Standards Institutes (CLSI) guidelines. MIC assay was performed in 96 well plates by micro broth dilution method, in 96 well plates, all the wells were added with 100 μl of sterilized Muller Hinton broth No: 2 cation broth (HiMedia, India). The initial stock of test compounds (1 mg/ml) were prepared in dimethyl sulfoxide (DMSO) and further dilutions were made in culture broth to get the desirable concentration. Then 100 μl of broth containing test compounds were initially added to the first column's wells and then serial dilution was performed up to well of 10th column. Wells of 11th and 12th column served as a positive and negative control respectively. Finally, 100 μl of inoculum (0.5 McFarland equal bacterial suspension was 100 times diluted in culture broth) was added to all the wells. Plates were incubated at 37° C. for 18-24 hrs. After incubation, MIC of each test compound was determined by observing the lowest concentration of test compound that has no visual growth compared to growth control. Minimum inhibitory concentration of besifloxacin, ampicillin and cefotaxime against gram negative bacterial strains were shown in Table 1.

Enterobacter sp. 1 = test: as above; assay type: cell-based; details: read-out: Minimum Inhibitory Concentration
Procedure: as §1

Enterobacter sp. 2 = test: as above; assay type: cell-based; details: read-out: Minimum Inhibitory Concentration
Procedure: as §1

Enterobacter sp. 523 = test: as above; assay type: cell-based; details: read-out: Minimum Inhibitory Concentration
Procedure: as §1

Enterobacter sp. 532 = test: as above; assay type: cell-based; details: read-out: Minimum Inhibitory Concentration
Procedure: as §1

Escherichia coli 591 = test: as above; assay type: cell-based; details: read-out: Minimum Inhibitory Concentration
Procedure: as §1

Escherichia coli 592 = test: as above; assay type: cell-based; details: read-out: Minimum Inhibitory Concentration
Procedure: as §1

Klebsiella sp. 498 = test: as above; assay type: cell-based; details: read-out: Minimum Inhibitory Concentration
Procedure: as §1

Klebsiella sp. 512 = test: as above; assay type: cell-based; details: read-out: Minimum Inhibitory Concentration
Procedure: as §1

Pseudomonas sp. 537 = test: as above; assay type: cell-based; details: read-out: Minimum Inhibitory Concentration
Procedure: as §1

Pseudomonas sp. 556 = test: as above; assay type: cell-based; details: read-out: Minimum Inhibitory Concentration
Procedure: as §1

[1] = system: A. baumannii CCARM 12001 (Quinolone resistant strain); test: MIC, micro broth dilution (CLSI), Table 1A; assay type: cell-based; details: Acinetobacter baumannii, CCARM12001
Procedure: (§2) MIC of besifloxacin and other antibiotics molecules were determined by micro broth dilution method as per the Clinical and Laboratory Standards Institute (CLSI) guideline. MIC assay is the determinant of the inherent anti-microbial potency of a particular molecule. For preparing inoculum, bacterial strains were cultured in Brain Heart Infusion Agar (BHIA) at 37° C. for 24 hours. […] For bacterial inoculum, bacterial culture turbidity was adjusted to 0.1 OD at 600 nm in UV-Visual spectrophotometer (approximately 1.5×10^8 cells/ml) and further diluted (100 times with sterile BHI broth). Diluted bacterial suspension (100 μl) was added to each well except sterility control wells (column 12 of 96 well plate). Column 11 of 96 well plate was used as growth control and vehicle control. The plates were incubated at 37° C. for 24 h. The MIC of the test compounds were determined by observing the lowest concentration of test compound that prevented the visual bacterial growth.

[2] = system: A. baumannii CCARM 12020 (multi-drug resistant, quinolone susceptible); test: MIC, micro broth dilution (CLSI), Table 1A; assay type: cell-based; details: Acinetobacter baumannii, CCARM12020
Procedure: as §2

[3] = system: A. haumannii ATCC 19606 (wild type); test: MIC, micro broth dilution (CLSI), Table 1A; assay type: cell-based; details: Acinetobacter baumannii, ATCC19606
Procedure: as §2

[4] = system: E. coli ATCC BAA 196 (multi-drug resistant strain); test: MIC, micro broth dilution (CLSI), Table 1A; assay type: cell-based; details: Escherichia coli, BAA196
Procedure: as §2

[5] = system: E. coli MTCC 1687 (wild type); test: MIC, micro broth dilution (CLSI), Table 1A; assay type: cell-based; details: Escherichia coli, MTCC1687
Procedure: as §2

[6] = system: K. pneumoniae ATCC 13883 (wild type); test: MIC, micro broth dilution (CLSI), Table 1A; assay type: cell-based; details: Klebsiella pneumoniae, ATCC13883
Procedure: as §2

[7] = system: P. aeruginosa ATCC 27853 (wild type); test: MIC, micro broth dilution (CLSI), Table 1A; assay type: cell-based; details: Pseudomonas aeruginosa, ATCC27853
Procedure: as §2

[8] = system: P. aeruginosa CCARM 2204 (multi-drug resistant, quinolone susceptible); test: MIC, micro broth dilution (CLSI), Table 1A; assay type: cell-based; details: Pseudomonas aeruginosa, CCARM2204
Procedure: as §2

[9] = system: E. aerogenes M2-1 (clinical isolate); test: MIC, micro broth dilution (CLSI), Table 1A; assay type: cell-based, Enterobacter aerogenes; details: Klebsiella aerogenes
Procedure: as §2

[10] = system: E. aerogenes NCIM 5139 (wild type); test: MIC, micro broth dilution (CLSI), Table 1A; assay type: cell-based, Enterobacter aerogenes; details: Klebsiella aerogenes, NCIM5139
Procedure: as §2

P. acnes V3-1 = test: MIC against bacteria isolated from acne lesions, Table 2; assay type: cell-based, Propionibacterium acnes; details: Cutibacterium acnes, V31; P. acnes V3-1, isolated from acne lesions; read-out: Minimum Inhibitory Concentration
Procedure: as §2
(§3) Different skin resident bacteria were isolated from acne lesions of moderate to severe acne patients.

[11] = system: Bacillus megaterium M1-2.; test: as above; assay type: cell-based; details: Priestia megaterium, M12., read-out: Minimum Inhibitory Concentration
Procedure: as §2, §3

[12] = system: Dermatobacter hominis S11-2; test: as above; assay type: cell-based; details: S112; Dermatobacter hominis S11-2, isolated from acne lesions; read-out: Minimum Inhibitory Concentration
Procedure: as §2, §3

[13] = system: Enterobacter aerogenes M2-1; test: as above; assay type: cell-based; details: Klebsiella aerogenes, M21; Enterobacter aerogenes M2-1, isolated from acne lesions; read-out: Minimum Inhibitory Concentration
Procedure: as §2, §3

K. pneumoniae S6-1 = test: as above; assay type: cell-based; details: Klebsiella pneumoniae, S61; K. pneumoniae S6-1, isolated from acne lesions; read-out: Minimum Inhibitory Concentration
Procedure: as §2, §3

Kocuria sp. S18-1 = test: as above; assay type: cell-based; details: SP.S181; Kocuria sp. S18-1, isolated from acne lesions; read-out: Minimum Inhibitory Concentration
Procedure: as §2, §3

Microbacterium sp. S20-2 = test: as above; assay type: cell-based; details: Microbacterium sp. S20-2, isolated from acne lesions
Procedure: as §2, §3

P. avidum S3-1 = test: as above; assay type: cell-based; details: Cutibacterium avidum, S31; P. avidum S3-1, isolated from acne lesions; read-out: Minimum Inhibitory Concentration
Procedure: as §2, §3

S. epidermidis S1-1 = test: as above; assay type: cell-based; details: Staphylococcus epidermidis, S11; S. epidermidis S1-1, isolated from acne lesions; read-out: Minimum Inhibitory Concentration
Procedure: as §2, §3

[14] = system: Staphylococcus haemolyticus M1-1; test: as above; assay type: cell-based; details: M11; Staphylococcus haemolyticus M1-1, isolated from acne lesions; read-out: Minimum Inhibitory Concentration
Procedure: as §2, §3

Blastococcus sp. S21A-2 = assay type: cell-based; details: Blastococcus sp. S21A-2, isolated from acne lesions
Procedure: as §2, §3

[15] = system: microorganisms that cause gram-negative folliculitis; test: MIC, summary statements on gram-negative bacteria involved in GNF; assay type: cell-based; details: for Activity against gram-negative bacterial strains involved in GNF (in words): irrespective of response to other conventional antibiotics or quinolones, ampicillin/cefotaxime susceptible and resistant strains
Procedure: as §2, §1

[16] = Skin penetration/retention on human abdominal skin, Franz-type diffusion cells; assay type: in vitro ADME; details: human epidermal membranes, 12 hr, approximately 10 mg/cm^2 of approximately 1.0% formulation
Procedure: Besifloxacin gel and cream containing suspended besifloxacin were tested for skin retention study on human abdominal skin. Besifloxacin gel and cream were applied over a 12 hr application period. Heat-separated epidermal membranes from a single donor were mounted in horizontal Franz-type diffusion cells (exposed surface area 1.33 cm2) over a receptor solution of phosphate buffered saline, pH 7.4 containing 5% ethanol to facilitate solubilisation of any material penetrating the skin. Cells were maintained at 35° C. and receptor solution was stirred throughout. Formulations containing approximately 1.0% besifloxacin w/w and applied at a dose of approximately 10 mg/cm^2. The samples of the receptor solution were taken at times up to 12 hrs and extracts from surface swabs, stratum corneum tape strips and residual epidermis were obtained at the end of the experiment at 12 hrs. All samples were analysed by validated LCMS.
Besifloxacin gel containing suspended besifloxacin was tested for skin retention study on human abdominal skin. Testing procedure was similar to example 27.

[17] = system: skin resident bacteria isolated from acne lesions; test: MIC, summary statements on skin resident bacteria of acne patients; assay type: cell-based
Text: Moreover, as the MIC values are low and within a narrow range, the chance of future resistance generation due to sub optimal drug delivery in skin is also substantially lower.
Different skin resident bacteria were isolated from acne lesions of moderate to severe acne patients. As expected, P. acnes and S. epidermidis were two most prevalent species. Members of the skin microbiomes were of diverse nature. Most of the genus were gram positive, but few of them, like Klebsiella, were gram negative. Most of them were aerobic, but few, like P. acnes, were anaerobic in nature. […] Even if they are present in low numbers in microbiomes, they can act as reservoirs of resistance against antibiotic of choice which may in the log run affect the prognosis of GNF.

CC1(C)S[C@@H]2[C@H](NC(=O)[C@H](N)c3ccccc3)C(=O)N2[C@H]1C(=O)O [Ampicillin]
MIC (Acinetobacter sp. 488): > 128 µg/mL
MIC (Enterobacter sp. 1): > 128 µg/mL
MIC (Enterobacter sp. 2): 2 µg/mL (≈ 5.72 µM)
MIC (Enterobacter sp. 523): > 128 µg/mL
MIC (Enterobacter sp. 532): > 128 µg/mL
MIC (Escherichia coli 591): 4 µg/mL (≈ 11.4 µM)
MIC (Escherichia coli 592): > 128 µg/mL
MIC (Klebsiella sp. 498): > 128 µg/mL
MIC (Klebsiella sp. 512): 32 µg/mL (≈ 91.6 µM)
MIC (Pseudomonas sp. 537): > 128 µg/mL
MIC (Pseudomonas sp. 556): > 128 µg/mL

N[C@@H]1CCCCN(c2c(F)cc3c(=O)c(C(=O)O)cn(C4CC4)c3c2Cl)C1 [Besifloxacin]
MIC [1]: 2 µg/mL (≈ 5.08 µM)
MIC [2]: 4 µg/mL (≈ 10.2 µM)
MIC [3]: 1 µg/mL (≈ 2.54 µM)
MIC [4]: 1 µg/mL (≈ 2.54 µM)
MIC [5]: 0.125 µg/mL (≈ 0.317 µM)
MIC [6]: 0.25 µg/mL (≈ 0.635 µM)
MIC [7]: 0.5 µg/mL (≈ 1.27 µM)
MIC [8]: 4 µg/mL (≈ 10.2 µM)
MIC [9]: 0.125 µg/mL (≈ 0.317 µM)
MIC [10]: 0.125 µg/mL (≈ 0.317 µM)
MIC (Acinetobacter sp. 488): 2 µg/mL (≈ 5.08 µM)
MIC (Enterobacter sp. 1): 16 µg/mL (≈ 40.6 µM)
MIC (Enterobacter sp. 2): 1 µg/mL (≈ 2.54 µM)
MIC (Enterobacter sp. 523): 0.5 µg/mL (≈ 1.27 µM)
MIC (Enterobacter sp. 532): 16 µg/mL (≈ 40.6 µM)
MIC (Escherichia coli 591): 0.125 µg/mL (≈ 0.317 µM)
MIC (Escherichia coli 592): 0.5 µg/mL (≈ 1.27 µM)
MIC (Klebsiella sp. 498): 16 µg/mL (≈ 40.6 µM)
MIC (Klebsiella sp. 512): 0.25 µg/mL (≈ 0.635 µM)
MIC (Pseudomonas sp. 537): 1 µg/mL (≈ 2.54 µM)
MIC (Pseudomonas sp. 556): 1 µg/mL (≈ 2.54 µM)
MIC (P. acnes V3-1): 0.5 µg/mL (≈ 1.27 µM)
MIC [11]: 0.02 µg/mL (≈ 0.0508 µM)
MIC [12]: 1 µg/mL (≈ 2.54 µM)
MIC [13]: 0.25 µg/mL (≈ 0.635 µM)
MIC (K. pneumoniae S6-1): 1 µg/mL (≈ 2.54 µM)
MIC (Kocuria sp. S18-1): 0.5 µg/mL (≈ 1.27 µM)
Minimum Inhibitory Concentration (Microbacterium sp. S20-2): 0.5 µg/mL
MIC (P. avidum S3-1): 0.5 µg/mL (≈ 1.27 µM)
MIC (S. epidermidis S1-1): 0.25 µg/mL (≈ 0.635 µM)
MIC [14]: 0.13 µg/mL (≈ 0.33 µM)
Minimum Inhibitory Concentration (Blastococcus sp. S21A-2): 0.06 µg/mL
Activity against gram-negative bacterial strains involved in GNF (in words) [15]: very effective; also recorded: efficacious
Activity against gram-negative bacterial strains involved in GNF (in words) ([15]; listed as besifloxacin): susceptible
MIC ([15]; range over strains, read-out: MIC of besifloxacin against microorganisms that cause gram-negative folliculitis): 0.125 to 16 µg/mL
MIC better (lower) compared with conventional antibiotics ([15]; vs cefotaxime, ampicillin, clindamycin, tetracycline and erythromycin): at least 50%
besifloxacin recovered from receptor solution [16]: negligible amounts
Activity against skin resident bacteria isolated from acne lesions (in words) ([17]; Table 2 isolates): potent antibacterial activity
isolates demonstrating resistance to besifloxacin ([17]; micro broth dilution assay, acne patients or healthy individuals): none
